{"source": "paper PMC4335062", "about": "“Data-Driven Prediction and Design of bZIP Coiled-Coil Interactions” (PLoS Computational Biology, 2015)", "assay_in_all_cases": "Direct-binding FRET assay", "key": {"MAFF": {"molecular_target": "T1, MAFF (Homo sapiens, UniProt Q9ULX9)", "T1 construct": "made in house", "T1 sequence (Q9ULX9 51-114 limits assumed)": "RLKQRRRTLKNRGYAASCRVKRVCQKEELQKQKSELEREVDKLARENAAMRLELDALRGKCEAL", "procedure": "(§1) The direct binding assay was performed manually in 384-well plates and is similar to a previously described assay. Wells were filled with 20 μL of 1 mM TCEP-HCl. A 4 μM stock of acceptor protein was made fresh in 1 mM TCEP-HCl, and 20 μL was titrated in 2-fold dilutions over the wells. […] The direct-binding FRET data were fit as previously described. Briefly, the Kd of the designed peptide homodimer was experimentally determined and used with previously determined target homodimer Kd values to determine the heterodimer Kd. The homodimer Kd values used for the human bZIPs were from; experiments done by […] et al. used the same protein constructs for the human bZIP proteins, the same buffer conditions, and the same assay. The fitting used a system of ordinary differential equations to describe the concentrations of homo and heterodimers formed by the donor (D) and acceptor (A) as a function of the heterodimer Kd. MATLAB was used to simulate the binding experiment for different Kd values, and the value that gave the best agreement between simulation and experiment was assigned. A minimum 15% change in the donor fluorescence upon titrating the acceptor peptide from 0 to 1000 nM was required for a fit to be attempted. If this minimum was not met, the interaction was classified as “NS” for no signal change. […] For such curves, we removed the first five points and re-fit the data."}, "CREB1": {"molecular_target": "T2, CREB1 (Homo sapiens, UniProt P16220)", "T2 construct": "made in house", "T2 sequence (P16220 269-327 limits assumed)": "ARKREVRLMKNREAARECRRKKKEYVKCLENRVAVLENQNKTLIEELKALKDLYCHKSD", "procedure": "as §1"}, "ATF3": {"molecular_target": "T3, ATF3 (Homo sapiens, UniProt P18847)", "T3 construct": "made in house", "T3 sequence (P18847 86-149 limits assumed)": "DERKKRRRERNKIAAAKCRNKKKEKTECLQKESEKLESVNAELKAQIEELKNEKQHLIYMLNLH", "procedure": "as §1"}, "NFE2L3": {"molecular_target": "T4, NFE2L3 (Homo sapiens, UniProt Q9Y4A8)", "T4 construct": "made in house", "T4 sequence (Q9Y4A8 578-641 limits assumed)": "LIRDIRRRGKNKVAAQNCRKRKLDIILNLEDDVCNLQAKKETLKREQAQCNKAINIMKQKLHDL", "procedure": "as §1"}, "XBP1": {"molecular_target": "T5, XBP1 (Homo sapiens, UniProt P17861)", "T5 construct": "made in house", "T5 sequence (P17861 70-133 limits assumed)": "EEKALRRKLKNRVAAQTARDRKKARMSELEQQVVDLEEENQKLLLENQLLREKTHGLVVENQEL", "procedure": "as §1"}, "NFE2": {"molecular_target": "T6, NFE2 (Homo sapiens, UniProt Q16621)", "T6 construct": "made in house", "T6 sequence (Q16621 266-329 limits assumed)": "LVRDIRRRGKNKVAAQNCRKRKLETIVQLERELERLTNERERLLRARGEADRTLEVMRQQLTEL", "procedure": "as §1"}, "ATF4": {"molecular_target": "T7, ATF4 (Homo sapiens, UniProt P18848)", "T7 construct": "made in house", "T7 sequence (P18848 278-341 limits assumed)": "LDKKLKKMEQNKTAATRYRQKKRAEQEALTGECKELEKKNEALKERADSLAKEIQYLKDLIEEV", "conditions": "Kd", "procedure": "as §1"}, "ATF6B": {"molecular_target": "ATF6B (Homo sapiens, UniProt Q99941)", "sequence (Q99941 325-388 limits assumed)": "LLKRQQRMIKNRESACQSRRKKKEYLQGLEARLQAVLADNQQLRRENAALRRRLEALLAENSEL", "parameters": "made in house", "conditions": "Kd", "procedure": "as §1"}, "JUN": {"molecular_target": "JUN (Homo sapiens, UniProt P05412)", "parameters": "made in house", "conditions": "Kd", "procedure": "as §1"}, "FOS": {"molecular_target": "FOS (Homo sapiens, UniProt P01100)", "sequence (P01100 137-200 limits assumed)": "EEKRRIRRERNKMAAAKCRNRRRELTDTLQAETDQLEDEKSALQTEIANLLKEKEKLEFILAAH", "parameters": "made in house", "procedure": "as §1"}, "MAFG": {"molecular_target": "MAFG (Homo sapiens, UniProt O15525)", "sequence (O15525 51-114 limits assumed)": "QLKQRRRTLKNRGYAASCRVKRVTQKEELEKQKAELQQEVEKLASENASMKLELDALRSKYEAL", "parameters": "made in house", "procedure": "as §1"}, "[1]": {"conditions": "4°C, C-terminal rhodamine design, repeat 1"}, "[2]": {"conditions": "4°C, N-terminal rhodamine design, mean or single"}, "[3]": {"conditions": "23°C, C-terminal rhodamine design, repeat 1"}, "[4]": {"conditions": "23°C, N-terminal rhodamine design, mean or single"}, "[5]": {"conditions": "37°C, N-terminal rhodamine design, mean or single"}, "[6]": {"conditions": "4°C, C-terminal fluorescein design as donor, TAMRA target titrated"}, "[7]": {"conditions": "23°C, C-terminal fluorescein design as donor, TAMRA target titrated"}, "[8]": {"conditions": "37°C, C-terminal fluorescein design as donor, TAMRA target titrated"}}, "note": "pKd: −log10 of the molar value. Where two headings read alike, the source gives them in different places. Where no end group is shown, it is not given here.", "data": [{"sequence": "SIAATLEKEEANLEKMNKKLAAEIESLLKEKDKLESVLNYHE [JUN-d1]", "values": [{"measurement": "pKd", "setting": "MAFF", "value": "< 6.00"}, {"measurement": "pKd", "setting": "MAFF; [1]", "value": "< 6.00"}, {"measurement": "pKd", "setting": "MAFF; [2]", "value": "< 6.00"}, {"measurement": "pKd", "setting": "MAFF; [3]", "value": "< 6.00"}, {"measurement": "pKd", "setting": "MAFF; [4]", "value": "< 6.00"}, {"measurement": "pKd", "setting": "MAFF; [5]", "value": "< 6.00"}, {"measurement": "pKd", "setting": "CREB1", "value": "< 6.00"}, {"measurement": "pKd", "setting": "CREB1; [6]", "value": "< 6.00"}, {"measurement": "pKd", "setting": "CREB1; [1]", "value": "< 6.00"}, {"measurement": "pKd", "setting": "CREB1; [2]", "value": "< 6.00"}, {"measurement": "pKd", "setting": "CREB1; [7]", "value": "< 6.00"}, {"measurement": "pKd", "setting": "CREB1; [3]", "value": "< 6.00"}, {"measurement": "pKd", "setting": "CREB1; [4]", "value": "< 6.00"}, {"measurement": "pKd", "setting": "CREB1; [8]", "value": "< 6.00"}, {"measurement": "pKd", "setting": "CREB1; [5]", "value": "< 6.00"}, {"measurement": "pKd", "setting": "ATF3", "value": "< 6.00"}, {"measurement": "pKd", "setting": "ATF3; [6]", "value": "< 6.00"}, {"measurement": "pKd", "setting": "ATF3; [2]", "value": "< 6.00"}, {"measurement": "pKd", "setting": "ATF3; [7]", "value": "< 6.00"}, {"measurement": "pKd", "setting": "ATF3; [3]", "value": "< 6.00"}, {"measurement": "pKd", "setting": "ATF3; [4]", "value": "< 6.00"}, {"measurement": "pKd", "setting": "ATF3; [8]", "value": "< 6.00"}, {"measurement": "pKd", "setting": "ATF3; [5]", "value": "< 6.00"}, {"measurement": "pKd", "setting": "NFE2L3", "value": "< 6.00"}, {"measurement": "pKd", "setting": "NFE2L3; [1]", "value": "< 6.00"}, {"measurement": "pKd", "setting": "NFE2L3; [2]", "value": "< 6.00"}, {"measurement": "pKd", "setting": "NFE2L3; [3]", "value": "< 6.00"}, {"measurement": "pKd", "setting": "NFE2L3; [4]", "value": "< 6.00"}, {"measurement": "pKd", "setting": "NFE2L3; [5]", "value": "< 6.00"}, {"measurement": "pKd", "setting": "XBP1", "value": "< 6.00"}, {"measurement": "pKd", "setting": "XBP1; [1]", "value": "< 6.00"}, {"measurement": "pKd", "setting": "XBP1; [2]", "value": "< 6.00"}, {"measurement": "pKd", "setting": "XBP1; [3]", "value": "< 6.00"}, {"measurement": "pKd", "setting": "XBP1; [4]", "value": "< 6.00"}, {"measurement": "pKd", "setting": "XBP1; [5]", "value": "< 6.00"}, {"measurement": "pKd", "setting": "NFE2", "value": "< 6.00"}, {"measurement": "pKd", "setting": "NFE2; [6]", "value": "< 6.00"}, {"measurement": "pKd", "setting": "NFE2; [1]", "value": "< 6.00"}, {"measurement": "pKd", "setting": "NFE2; [2]", "value": "< 6.00"}, {"measurement": "pKd", "setting": "NFE2; [7]", "value": "< 6.00"}, {"measurement": "pKd", "setting": "NFE2; [3]", "value": "< 6.00"}, {"measurement": "pKd", "setting": "NFE2; [4]", "value": "< 6.00"}, {"measurement": "pKd", "setting": "NFE2; [8]", "value": "< 6.00"}, {"measurement": "pKd", "setting": "NFE2; [5]", "value": "< 6.00"}, {"measurement": "pKd", "setting": "ATF4; [2]", "value": 6.23}, {"measurement": "pKd", "setting": "ATF4; [7]", "value": 7.40}, {"measurement": "pKd", "setting": "ATF4; [4]", "value": "< 5.30"}, {"measurement": "pKd", "setting": "ATF4; [8]", "value": 6.36}, {"measurement": "pKd", "setting": "ATF4; 37°C, C-terminal rhodamine design, mean or single", "value": 6.27}, {"measurement": "pKd", "setting": "ATF4; [5]", "value": "< 6.00"}, {"measurement": "pKd", "setting": "ATF6B; [6]", "value": "6.00 to 6.70"}, {"measurement": "pKd", "setting": "ATF6B; [1]", "value": "< 6.00"}, {"measurement": "pKd", "setting": "ATF6B; [2]", "value": "< 6.00"}, {"measurement": "pKd", "setting": "ATF6B; [7]", "value": "< 6.00"}, {"measurement": "pKd", "setting": "ATF6B; [3]", "value": "< 6.00"}, {"measurement": "pKd", "setting": "ATF6B; [4]", "value": "< 6.00"}, {"measurement": "pKd", "setting": "ATF6B; [8]", "value": "< 6.00"}, {"measurement": "pKd", "setting": "ATF6B; 37°C, C-terminal rhodamine design, repeat 1", "value": "< 6.00"}, {"measurement": "pKd", "setting": "ATF6B; [5]", "value": "< 6.00"}, {"measurement": "pKd", "setting": "JUN; [6]", "value": 8.68}, {"measurement": "pKd", "setting": "JUN; 4°C, C-terminal rhodamine design, mean or single", "value": 9.00}, {"measurement": "pKd", "setting": "JUN; [8]", "value": 7.79}, {"measurement": "pKd", "setting": "FOS", "value": "< 6.00"}, {"measurement": "pKd", "setting": "FOS; [6]", "value": "< 6.00"}, {"measurement": "pKd", "setting": "FOS; [2]", "value": "< 6.00"}, {"measurement": "pKd", "setting": "FOS; [7]", "value": "< 6.00"}, {"measurement": "pKd", "setting": "FOS; [3]", "value": "< 6.00"}, {"measurement": "pKd", "setting": "FOS; [4]", "value": "< 6.00"}, {"measurement": "pKd", "setting": "FOS; [8]", "value": "< 6.00"}, {"measurement": "pKd", "setting": "FOS; [5]", "value": "< 6.00"}, {"measurement": "pKd", "setting": "MAFG", "value": "< 6.00"}, {"measurement": "pKd", "setting": "MAFG; [1]", "value": "< 6.00"}, {"measurement": "pKd", "setting": "MAFG; [2]", "value": "< 6.00"}, {"measurement": "pKd", "setting": "MAFG; [3]", "value": "< 6.00"}, {"measurement": "pKd", "setting": "MAFG; [4]", "value": "< 6.00"}, {"measurement": "pKd", "setting": "MAFG; [5]", "value": "< 6.00"}]}]}
